{
  "source": "patent US20120283313A1",
  "about": "“INHIBITION AND TREATMENT OF PROSTATE CANCER METASTASIS” (NORTHWESTERN UNIVERSITY, priority 2007, published 2012)",
  "key": {"[1]": {"tested_on": "p38 MAP kinase", "test": "Western blot of primary tumor tissue for p38 MAP kinase", "type": "in vivo, mice", "conditions": "fresh frozen primary tumor tissue"}, "[2]": {"tested_on": "prostate epithelial cells", "test": "Phase 2 trial: LCM and 12K gene array of prostate epithelial cells", "type": "in vivo, human", "source_text": "In particular, methodology was employed wherein prostate epithelial cells are selectively removed from human prostate tissue by laser capture microdissection (LCM), the resultant RNA linear amplified, and custom manufactured 12K gene arrays are probed. Ding, et al., Id."}, "[3]": {"tested_on": "MMP-2", "test": "Phase 2 trial: MMP-2 transcript levels by LCM and qRT/PCR", "type": "in vivo, human", "conditions": "normal prostate epithelial cells, 2 mg genistein/kg/day, normalized to GAPDH"}, "[4]": {"tested_on": "human PC3-M PCa cells", "test": "orthotopic PC3-M implantation metastasis model in athymic mice"}, "[5]": {"conditions": "men, 2 to 8 mg genistein/kg; cited from earlier work"}, "[6]": {"tested_on": "human prostate cancer (PCa) cell lines", "test": "cell invasion assay of PCa cell lines with genistein / siMEK4", "type": "cell-based", "source_text": "MEK expression was examined in six human prostate cancer (PCa) cell lines: PC3 and PC3-M metastatic PCa cells, 1532CPTX and 1542 CPTX immortalized localized PCa cells, and 1532 NPTX and 1542 NPTX immortalized normal epithelial cells. The last four cell lines are primary cells, are HPV transformed, and thus represent early stages of prostate carcinogenesis. They provide representative members of the metastatic phenotype, as well as members of early state phenotypes. […] All six cell lines also secrete as well as respond to TGFβ, a regulator of cell motility that plays a role in PCa cell invasiveness.\nAssays were conducted using methods as described in Craft et al. (2008, Mol. Pharmocol., 73(1):235-242; herein incorporated by reference in its entirety)."}, "[7]": {"conditions": "men, 2 mg genistein/kg/day for 1 month"}, "[8]": {"tested_on": "MEK4", "test": "TGFβ stimulated phosphorylation of MEK4 in vivo", "type": "cell-based", "method": "Phosphorylation by MEK4 (FIG. 4A) and phosphorylation of MEK4 (FIG. 7) was assayed. The Upstate Biotechnology MEK4 assay system was used to measure inhibition of MEK4 activity. Phosphorylation of MEK4 in vivo was assayed using standard techniques."}, "[9]": {"tested_on": "PC3M cells", "test": "quantitative image analysis of nuclear morphology, mouse tissue", "type": "in vivo, mice", "conditions": "250 mg genistein vs controls", "source_text": "Change in cell morphology is a generally recognized measure of change in cell adhesion. Compounds which increase cell adhesion of prostate cancer cells in vivo may inhibit prostate cancer metastasis. […] Quantitative image analysis according to established methods was used to measure in vivo changes in nuclear morphology in the prostate. (Bartels, et al., Prostate, 48:144-55, (2001); Boone, et al., Urology, 57:129-31 (2001); Bartels, et al., Anal. Quant. Cytol. Histol. 20:397-406 (1998); Bartels et al., Anal. Quant. Cytol. Histol. 20:389-96; Veltri, et al., J. Cell Biochem. Suppl., 151-57 (2000); herein incorporated by reference in their entireties).\nMouse: From the mouse experiment of Example 5, primary (prostate gland) and metastatic (local lymph nodes) tissue was Feulgen-stained, and the nuclear morphology of PC3M cells was quantitated on a ChromaVision ACIS® II Image Analysis System. […] Specifically, for lymph node: cell area increased by 19.5±2.1%, cell length by 9.1±1.1%, and cell width by 9.5±1.1% (p:S 0.01 for all). For primary tumor: cell length increased by 3.0±1.1% (p:S 0.05)."}, "[10]": {"conditions": "mice, free about a tenth of total"}, "[11]": {"tested_on": "prostate epithelial cells", "test": "Phase 2 trial: nuclear morphology of prostate epithelial cells", "type": "in vivo, human", "conditions": "men, genistein treated vs controls", "source_text": "Though morphologically “normal,” these cells are present within organs with PCa, have pre-cancer molecular changes, and represent an appropriate target cell type for therapy that inhibits a process associated with PCa progression, in this case, development of the metastatic phenotype. […] These findings are consistent with its effects in vitro and in mice."}},
  "note": "“Also recorded” adds a separate entry of the source. Where two headings read alike, the source gives them in different places.",
  "data": [
    {"smiles": "O=c1c(-c2ccc(O)cc2)coc2cc(O)cc(O)c12", "note": "[genistein]", "values": [
      {"measurement": "level of total p38 MAP kinase protein", "setting": "[1]", "result": "total amount of p38 MAP kinase increased"},
      {"measurement": "phosphorylation of p38 MAP kinase", "setting": "[1]", "result": "decreasing phosphorylation of p38 MAP kinase; also recorded: decreased its phosphorylation"},
      {"measurement": "gene array expression level, mean (SE)", "setting": "[2]; MALATI, genistein-treated subjects", "result": "8.22 (0.87)"},
      {"measurement": "gene array expression level, mean (SE)", "setting": "[2]; brain acid-soluble protein 1, genistein-treated subjects", "result": "13.3 (0.34)"},
      {"measurement": "gene array expression level, mean (SE)", "setting": "[2]; heat shock protein 90, genistein-treated subjects", "result": "8.51 (0.5)"},
      {"measurement": "gene array expression level, mean (SE)", "setting": "[2]; heparin cofactor II, genistein-treated subjects", "result": "2.19 (0.21)"},
      {"measurement": "gene array expression level, mean (SE)", "setting": "[2]; prostate acid phosphatase, genistein-treated subjects", "result": "6.85 (0.49)"},
      {"measurement": "gene array expression level, mean (SE)", "setting": "[2]; sorbitol dehydrogenase, genistein-treated subjects", "result": "5.33 (0.59)"},
      {"measurement": "MMP-2 transcript level, percent of controls (mean±SEM)", "setting": "[3]", "result": "24±4.1", "unit": "%"},
      {"measurement": "tumor volume", "setting": "[4]; 0, 100, 250 mg genistein/kg chow", "result": "but not tumor volume"},
      {"measurement": "weight of mice", "setting": "[4]; between dosing cohorts", "result": "no difference in the weight of mice between cohorts"},
      {"measurement": "peak concentration of total genistein", "setting": "[5]", "result": "4.3 to 16.3", "unit": "nM"},
      {"measurement": "effect of genistein on invasiveness when MEK4 expression suppressed by siMEK4", "setting": "[6]; PCa cells, genistein plus siMEK4", "result": "the effect of genistein was abrogated"},
      {"measurement": "invasion of PCa cells", "setting": "[6]; early and late stage PCa cell lines, presence of genistein", "result": "inhibits invasion of both early and late stage PCa cells"},
      {"measurement": "trough concentration of free genistein, mean±SEM", "setting": "[7]", "result": "26.6 ± 6.6", "unit": "nM"},
      {"measurement": "TGFβ stimulated phosphorylation of MEK4", "setting": "[8]", "result": "does not block TGF-β stimulated phosphorylation of MEK4 itself; also recorded: does not block such phosphorylation"},
      {"measurement": "increase in cell area", "setting": "[9]; lymph node", "result": "19.5±2.1", "unit": "%"},
      {"measurement": "increase in cell length", "setting": "[9]; lymph node", "result": "9.1±1.1", "unit": "%"},
      {"measurement": "increase in cell width", "setting": "[9]; lymph node", "result": "9.5±1.1", "unit": "%"},
      {"measurement": "increase in cell length", "setting": "[9]; primary tumor", "result": "3.0±1.1", "unit": "%"},
      {"measurement": "estimated free concentration", "setting": "[10]; 100 mg cohort", "result": 29, "unit": "nM"},
      {"measurement": "estimated free concentration", "setting": "[10]; 250 mg cohort", "result": 131, "unit": "nM"},
      {"measurement": "increase in length (nuclear morphology)", "setting": "[11]", "result": "1.5±0.7", "unit": "%"},
      {"measurement": "increase in width (nuclear morphology)", "setting": "[11]", "result": "2.7±0.7", "unit": "%"},
      {"measurement": "increase in area (nuclear morphology)", "setting": "[11]; only a trend", "result": "2.0±1.0", "unit": "%"}
    ]}
  ]
}
